Experimental data published in patent US20080221135A1, “COMBINATION THERAPY” (Bristol-Myers Squibb Company, priority 2005, published 2008).

Experiments:
[1] = test system: tumor; experiment: preclinical anti-tumor activity; type: in vivo; conditions: oral Compound I versus I.V. paclitaxel
[2] = oral bioavailability in dog; type: in vivo
[3] = oral bioavailability in rats; type: in vivo; conditions: rat
[4] = test system: NSCLC; experiment: single-agent treatment of NSCLC patients; type: in vivo, humans; conditions: Compound I
[5] = test system: tumor; experiment: Phase I data, Compound I single agent; type: in vivo, humans
[6] = oral bioavailability in humans; conditions: human, in vivo, 45% coefficient of variation
[7] = test system: variety of tumor types, including NSCLC; conditions: cited from earlier work
[8] = test system: NSCLC; conditions: chemo-naive or pre-treated NSCLC; cited from earlier work

COC(=O)O[C@@]12CO[C@@H]1C[C@H](O)[C@@]1(C)C(=O)[C@H](OC(C)=O)C3=C(C)[C@@H](OC(=O)[C@H](O)[C@@H](NC(=O)OC(C)(C)C)C(C)(C)C)C[C@@](O)([C@@H](OC(=O)c4ccccc4)[C@H]21)C3(C)C [Compound I, 3′-tert-butyl-3′-N-tert-butyloxycarbonyl-4-deacetyl-3′-dephenyl-3′-N-debenzoyl-4-O-methoxycarbonyl-paclitaxel]
preclinical anti-tumor activity [1]: comparable to intravenous (I.V.) paclitaxel | oral bioavailability [2]: good oral bioavailability | oral bioavailability [3]: good oral bioavailability | activity in treatment of pre-treated NSCLC [4]: promising early signs of activity | main toxicity ([4]; pre-treated NSCLC): transient, manageable neuropathy | anti-tumor activity ([5]; continuous weekly schedule, doses of 120 mg/m^2 and higher): shows anti-tumor activity | tolerability ([5]; doses of 120 and 200 mg/m^2): acceptable | dose limiting toxicities ([5]; twice weekly schedule, doses of 60 mg/m^2 and higher, versus weekly schedule): may reduce dose limiting toxicities | bioavailability [6]: 24%

Nc1nc2[nH]cc(CCc3ccc(C(=O)N[C@@H](CCC(=O)O)C(=O)O)cc3)c2c(=O)[nH]1 [Pemetrexed]
anti-tumor activity in pre-clinical models [7]: has shown anti-tumor activity | activity in treatment of NSCLC [8]: single-agent activity | tolerability profile [8]: acceptable tolerability profile
